Measurements published in patent publication US20220177484A1, “MACROCYCLES WITH ANTIOXIDANT AND NEUROPROTECTIVE ACTIVITIES” (INSTITUTO BIOMAR, S.A, priority 2019, published 2022).

Columns and labels:
Type in all cases: cell-based
[1] = test system: cortical primary neurons (from C57BL6/J mice); assay: H2O2 production in neurons after excitotoxic NMDA stimulus (Amplex Red); conditions: 100 μM NMDA 10 min, then compound 0.1, 1, 5 μM (FIG. 5)
Method: (§1) For NMDA receptors activation, neurons at 8 days in vitro were incubated with 100 μM NMDA for 10 minutes. Neurons were then washed and further incubated for 4 hours in culture medium with DMSO only (DMSO empty bar), DMSO and NMDA (DMSO filled bar) and with increasing quantities of GKK1032C, GKK1032, Pyrrocidine A, Pyrrocidine B, CL0661, CL0667 and CL0670. Concentrations of 0.1 μM, 1 μM, 5 μM. *: p-value <0.05 vs. DMSO+NMDA (student's test).
(§2) Experiments were performed in […] cortical primary neurons, obtained as was previously described (Herrero-Mendez A. et al., Nat. Cell. Biol. 11:747-752, 2009). After 7 or 8 days in B27-MAO culture, neurons (from C57BL6/J mice) were incubated in the presence of N-methyl-D-aspartate (NMDA, a H2O2 production promoter; 100 μM) for 10 minutes, followed by a PBS washing step and submitted to a 24-hour B27 incubation step in the absence (DMSO) or presence of increasing amounts of GKK1032C, GKK1032, Pyrrocidine B, Pyrrocidine A, CL0661, CL0665, CL0667 and CL0670 (0.1 μM, 1 μM and 5 μM). B27-MAO stands for Neurobasal medium, supplemented with B27 supplement in the absence of antioxidants (minus antioxidants, MAO).
The release of H2O2 was measured using the fluorescent method Amplex© Red hydrogen peroxide/peroxidase assay kit (Invitrogen, catalog number A22188) using a multiwell fluorescence reader (Varioskan, Thermo Scientific).
(§3) The data are presented as the mean values±standard deviation of the mean from n=3.

[2] = test system: rat cortical primary neurons; assay: H2O2 formation in cortical primary neurons treated with L-BSO and rotenone (Amplex Red); conditions: compound 1 μg/ml together with L-BSO and rotenone for 6 h, washed, recorded 2 h (FIG. 2)
Method: The data are presented as the mean values±[…] of the mean (SEM) from n=6 (i.e., 6 independent wells measured independently).
After this period, cells were again washed and determined the rate of H2O2 production during the next 2 h.

[3] = test system: cortical primary neurons (from C57BL6/J mice); assay: Caspase-3 activity (neuronal apoptosis) after excitotoxic NMDA stimulus; conditions: 100 μM NMDA 10 min, then 24 h with compound 0.1, 1, 5 μM (FIG. 6)
Method: as §1, with “24” for “4”, “Pyrrocidine” for “Pyrrocidine A, Pyrrocidine”, “CL0661, CL0665,” for “CL0661,”, “pvalue” for “p-value”
as §2
Neuronal apoptosis was determined by measuring caspase-3 activity (Veas-Perez de Tudela et al. Sci Rep 5:18180; doi:10.1038/srep18180 (2015).
as §3

| Structure (SMILES) | H2O2 production in neuron cells after NMDA [1] | rate of H2O2 formation [2] | neuronal apoptosis (caspase-3 activity) after NMDA [3] |
| --- | --- | --- | --- |
| C=C[C@@H]1C=C(C)[C@H]2[C@@H]3[C@H](Oc4ccc(cc4)C[C@@]4(O)C=C(C(=O)N4)C(=O)[C@@H]13)[C@@H]1[C@@H](C)C[C@@H](C)C[C@]12C [Pyrrocidine A, reference compound] | successful in preventing H2O2 from being produced | significantly impaired | – |
| C=CC1(C)C=C(C)C2C3C(Oc4ccc(cc4)CC4C(=O)N(CC#N)C(=O)C4C(=O)C31)C1C(C)CC(C)CC21C (stereo not drawn) [CL0667] | successful in preventing H2O2 from being produced | – | effective in protecting neuron cells against apoptosis |
| CC1=CC2(C)C(C)O/C3=C4\C(=O)NC(=O)C4Cc4ccc(cc4)OC4C(C32)C1C1(C)CC(C)CC(C)C41 (stereo not drawn) [CL0665] | – | – | effective in protecting neuron cells against apoptosis |
| C=C[C@@H]1C=C(C)[C@H]2[C@@H]3[C@H](Oc4ccc(cc4)C[C@@]4(O)C[C@H](C(=O)N4)C(=O)[C@@H]13)[C@@H]1[C@@H](C)C[C@@H](C)C[C@]12C [Pyrrocidine B, reference compound] | successful in preventing H2O2 from being produced | – | effective in protecting neuron cells against apoptosis |
| C=C[C@@]1(C)C=C(C)C2C3[C@H](Oc4ccc(cc4)CC4C(=O)NC(=O)[C@H]4C(=O)[C@H]31)C1[C@@H](C)C[C@@H](C)C[C@@]21C (stereo partly drawn) [GKK1032, reference compound] | successful in preventing H2O2 from being produced | significantly impaired | effective in protecting neuron cells against apoptosis |
| C=CC1(C)C=C(C)C2C3C(Oc4ccc(cc4)CC45OC4(C(=O)NC5=O)C(=O)C31)C1C(C)CC(C)CC21C (stereo not drawn) [CL0661] | successful in preventing H2O2 from being produced | – | effective in protecting neuron cells against apoptosis |
